Reference: the supplement of paper PMC10307832

Tests used:
Experiment in all cases: relative viability (nuclei count vs DMSO), 5 days (fraction); higher = more cells survive
Halofuginone + Foretinib = compound: O=C(C[C@H]1NCCC[C@@H]1O)Cn1cnc2cc(Br)c(Cl)cc2c1=O (racemic) [Halofuginone] + COc1cc2c(Oc3ccc(NC(=O)C4(C(=O)Nc5ccc(F)cc5)CC4)cc3F)ccnc2cc1OCCCN1CCOCC1 [Foretinib] (partner 0.25 µM)
In short: (§1)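 Relative viability is defined as nuclei in treated wells over nuclei in vehicle wells. Duplicate plates were run and medians reported. Lung cancer cell lines in 1536-well plates were dosed by pin tool one day after seeding, with one drug or with a fixed anchor-drug dose plus five library-drug doses (not always all listed) in √10 steps, and nuclei were counted after 5 days.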

Decitabine + Phenformin = compound: Nc1ncn([C@H]2C[C@H](O)[C@@H](CO)O2)c(=O)n1 [Decitabine] + N=C(N)NC(=N)NCCc1ccccc1 [Phenformin] (partner 250 µM)
In short: as §1

Cediranib + Palbociclib = compound: COc1cc2c(Oc3ccc4[nH]c(C)cc4c3F)ncnc2cc1OCCCN1CCCC1 [Cediranib] + CC(=O)c1c(C)c2cnc(Nc3ccc(N4CCNCC4)cn3)nc2n(C2CCCC2)c1=O [Palbociclib] (partner 0.5 µM)
In short: as §1

[1] = compound: O=C(C[C@H]1NCCC[C@@H]1O)Cn1cnc2cc(Br)c(Cl)cc2c1=O (racemic) [Halofuginone] + Nc1nc2[nH]cc(CCc3ccc(C(=O)N[C@@H](CCC(=O)O)C(=O)O)cc3)c2c(=O)[nH]1 [Pemetrexed] (partner 0.2 µM)
In short: as §1

Cell Line | relative viability (Halofuginone + Foretinib; first compound 0.001 µM) | relative viability (Halofuginone + Foretinib; first compound 0.003162 µM) | relative viability (Halofuginone + Foretinib; first compound 0.01 µM) | relative viability (Halofuginone + Foretinib; first compound 0.03162 µM) | relative viability (Halofuginone + Foretinib; first compound 0.1 µM) | relative viability (Decitabine + Phenformin; first compound 0.04 µM) | relative viability (Decitabine + Phenformin; first compound 0.1265 µM) | relative viability (Decitabine + Phenformin; first compound 0.4 µM) | relative viability (Decitabine + Phenformin; first compound 1.265 µM) | relative viability (Decitabine + Phenformin; first compound 4 µM) | relative viability (Cediranib + Palbociclib; first compound 0.04 µM) | relative viability (Cediranib + Palbociclib; first compound 0.4 µM) | relative viability (Cediranib + Palbociclib; first compound 1.265 µM) | relative viability (Cediranib + Palbociclib; first compound 4 µM) | relative viability ([1]; first compound 0.001 µM) | relative viability ([1]; first compound 0.003162 µM) | relative viability ([1]; first compound 0.01 µM) | relative viability ([1]; first compound 0.03162 µM) | relative viability ([1]; first compound 0.1 µM) | relative viability (Cediranib + Palbociclib; first compound 0.1265 µM)
LCLC-97TM1 | 1.02 | 0.947 | 0.935 | 1.02 | 0.935 | 0.304 | 0.308 | 0.312 | 0.293 | 0.124 | 0.277 | 0.194 | 0.211 | 0.277 | 0.183 | 0.156 | 0.189 | 0.16 | 0.153 | 
LC-2-ad | 0.928 | 0.973 | 0.866 | 1 | 0.497 | 0.512 | 0.552 | 0.509 | 0.419 | 0.416 | 0.527 | 0.456 | 0.494 | 0.399 | 0.273 | 0.305 | 0.251 | 0.246 | 0.269 | 0.55
NCI-H1395 | 1.02 | 0.934 | 0.925 | 1.06 | 0.879 | 0.398 | 0.407 | 0.46 | 0.411 | 0.399 | 0.622 | 0.629 | 0.623 | 0.535 | 0.873 | 0.822 | 0.991 | 0.696 | 0.571 | 0.615
NCI-H2228 | 0.908 | 1.08 | 0.777 | 0.325 | 0.146 | 0.271 | 0.252 | 0.103 | 0.154 | 0.192 | 0.648 | 0.752 | 0.615 | 0.787 | 0.32 | 0.29 | 0.345 | 0.273 | 0.074 | 1.02
NCI-H1944 | 0.865 | 0.89 | 0.853 | 0.899 | 0.561 | 0.191 | 0.21 | 0.227 | 0.166 | 0.199 | 0.331 | 0.315 | 0.346 | 0.313 | 0.611 | 0.62 | 0.579 | 0.586 | 0.496 | 0.386
HOP-62 | 1.09 | 1.22 | 1.02 | 0.96 | 0.704 | 0.464 | 0.374 | 0.175 | 0.168 | 0.148 | 0.482 | 0.409 | 0.426 | 0.486 | 0.326 | 0.293 | 0.333 | 0.306 | 0.295 | 0.517
NCI-H2347 | 1.35 | 0.929 | 0.994 | 0.841 | 1 | 0.472 | 0.384 | 0.413 | 0.467 | 0.326 | 0.497 | 0.4 | 0.4 | 0.417 | 0.412 | 0.445 | 0.432 | 0.43 | 0.429 | 0.417
NCI-H2087 | 1.28 | 1.14 | 1.04 | 1.29 | 0.331 | 0.411 | 0.359 | 0.291 | 0.242 | 0.25 | 0.243 | 0.249 | 0.182 | 0.224 | 0.673 | 0.657 | 0.686 | 0.709 | 0.489 | 0.24
